Patent publication US6562854B2, “Compositions comprising a substituted benzimidazole useful for treating immunomediated inflammatory disorders” (Axys Pharmaceuticals, Inc., priority 1994, dated 2003)
Counter-ions that a name gives are not always drawn.

System: tryptase purified from human lung or skin tissue preparations or human mast cell line (HMC-1)
Assay: In vitro Tryptase Inhibition Assay
Format: biochemical
Settings: substrate tosyl-Gly-Pro-Lys-p-nitroanilide; Tris-HCl pH 8.2; zinc chloride 150 μM; 1 hour preincubation at room temperature; read-out: Ki (apparent inhibition constant, tryptase inhibitory activity)
Procedure: Tryptase solution ([…]) was prepared by dissolving tryptase purified from human lung or skin tissue preparations or human mast cell line (HMC-1) or obtained from commercial sources, e.g., ICN Biomeidals, Irvine, Calif., Athens Research & Technology, Athens, Ga., etc., in a solvent mixture comprising: 10 mM 2-N-morpholinoethane sulfonic acid, 2 mM CaCl2, 20% glycerol and 50 µg/mL heparin. Substrate solution containing 2 mM synthetic tripeptide (tosyl-Gly-Pro-Lys-p-nitroanilide) was obtained from Sigma. Test Compound solutions were prepared by diluting a stock solution (1 mg of test Compound in 200 μL of dimethylsulfoxide (DMSO)) by ten-fold into assay buffer (comprising: Tris-HCl (pH 8.2), 50 mM; NaCl, 100 MM; 0.05% polyoxyethylenesorbitan monolaurate (Tween-20®); and zinc chloride, 150 μM) and then making seven additional three-fold dilutions into 10% DMSO in assay buffer.
Aliquots (50 μL) from each of the eight dilutions of test compound solution were added to separate wells in a 96-well U-bottom microtiter plate. Typtase solution (25 μL) was added to each well and the solutions were mixed 1 hour at room temperature. Substrate solution (25 μL) was added to initiate the enzymatic reaction and the microtiter plates were immediately transferred to a UVIMAX Kinetic Microplate Reader (Molecular Devices). The hydrolysis of the chromogenic substrate was followed spectrophotometrically at 405 nanometers for five minutes. Initial velocity measurements were calculated from the progress curves by kinetic analysis program (BatchKi; Petr Kuzmic, University of Wisconsin, Madison, Wis.). Apparent inhibition constants (K) were calculated from the enzyme progress curves using standard mathematical models.

Q: For “2-(5-Guanidino-1H-benzoimidazol-2-ylmethyl)-N-(2-naphthalen-1-ylethyl)-3-methyl-3H-benzoimidazole-5-carboxyamide [Compound 28]”, which Ki is on record?
A: 0.07 nM

Q: For NCc1ccc2[nH]c(Cc3nc4cc(C(=O)NCCCCc5ccccc5)ccc4[nH]3)nc2c1 [Compound 1, 2-(5-Aminomethyl-1H-benzoimidazol-2-ylmethyl)-N-(4-phenylbutyl)-1H-benzoimidazole-5-carboxamide trifluoroacetate], which Ki is on record?
A: 90 nM

Q: With Cn1c(Cc2nc3cc(CN)ccc3[nH]2)nc2cc(C(=O)NCCCN)ccc21 [Compound 12, 2-(5-Aminomethyl-1H-benzoimidazol-2-ylmethyl)-N-(3-aminopropyl)-1-methyl-1H-benzoimidazole-5-carboxamide] as the compound, how does the Ki read?
A: 29000 nM

Q: How did the Ki turn out when NCc1ccc2[nH]c(Cc3nc4cc(OCCCCc5ccccc5)ccc4[nH]3)nc2c1 [Compound 26, C-{2-[5-(4-phenylbutoxy)-1H-benzoimidazol-2-ylmethyl]-1H-benzoimidazol-5-yl}methylamine] was run?
A: 33000 nM

Q: NCc1ccc2[nH]c(Cc3nc4cc(NC(=O)OCCc5ccccc5)ccc4[nH]3)nc2c1 [Compound 27, 2-Phenylethyl 2-(5-aminomethyl-1H-benzoimidazol-2-ylmethyl)-1H-benzoimidazole-5-carbamate trifluoroacetate] was tested. Which Ki did it give?
A: 600 nM

Q: How did the Ki turn out when CCOC(=O)c1ccccc1CCCC(=O)N1CCc2[nH]c(C(C)c3nc4cc(NC(=N)N)ccc4[nH]3)nc2C1 (stereo not drawn) [Compound 29, Ethyl 2-(4-{2-[1-(5-guanidino-1H-benzoimidazol-2-yl)ethyl]-1,4,6,7-tetrahydroimidazo[4,5-c]pyridin-5-yl}-4-oxobutyl)benzoate] was run?
A: 0.8 nM

Q: Which Ki does the source give for COc1ccccc1OCCNC(=O)c1ccc2nc(C(C)c3nc4cc(O)ccc4[nH]3)n(C)c2c1 (stereo not drawn) [Compound 30, 2-[1-(5-Hydroxy-1H-benzoimidazol-2-yl)ethyl]-N-[2-(2-methoxyphenoxy)ethyl]-3-methyl-3H-benzoimidazole-5-carboxamide] here?
A: 9 nM

Q: How did the Ki turn out when CCCCOC(=O)c1ccccc1OCCNC(=O)c1ccc2nc(C(C)c3nc4cc(O)ccc4[nH]3)n(C)c2c1 (stereo not drawn) [Compound 37, butyl 2-(2-{2-[l-(5-hydroxy-1H-benzoimidazol-2-yl)ethyl]-3-methyl-3H-benzoimidazol-5-ylcarbonylamino}ethoxy)benzoate] was run?
A: 2 nM

Q: For CCCOC(=O)c1ccccc1OCCNC(=O)c1ccc2nc(C(C)c3nc4cc(O)ccc4[nH]3)n(C)c2c1 (stereo not drawn) [Compound 42, propyl 2-(2-{2-[1-(5-hydroxy-1H-benzoimidazol-2-yl)ethyl]-3-methyl-3H-benzoimidazol-5-ylcarbonylamino}ethoxy)benzoate], which Ki is on record?
A: 8 nM

Q: With CC(C)COC(=O)c1ccccc1OCCNC(=O)c1ccc2nc(C(C)c3nc4cc(O)ccc4[nH]3)n(C)c2c1 (stereo not drawn) [Compound 43, isobutyl 2-(2-{2-[1-(5-hydroxy-1H-benzoimidazol-2-yl)ethyl]-3-methyl-3H-benzoimidazol-5-ylcarbonylamino}ethoxy)benzoate] as the compound, how does the Ki read?
A: 2 nM

Q: Which Ki does the source give for CC(=N)N1CCc2[nH]c(C(C)c3nc4ccc(C(=O)NCCOc5ccccc5C(=O)O)cc4n3C)nc2C1 (stereo not drawn) [Compound 74, 2-[2-(2-{1-[5-(1-iminoethyl)-4,5,6,7-tetrahydro-1H-imidazo[4,5-c]pyridin-2-yl]ethyl}-3-methyl-3H-benzoimidazol-5-ylcarbonylamino)ethoxy]benzoic acid] here?
A: 6 nM

Q: CCOC(=O)c1ccccc1OCCNC(=O)c1ccc2nc(C(C)c3nc4c(F)cc(F)c(F)c4[nH]3)n(C)c2c1 (stereo not drawn) [Compound 75, ethyl 2-(2-{2-[1-(4,6,7-trifluoro-1H-benzoimidazol-2-yl)ethyl]-3-methyl-3H-benzoimidazol-5-carbonylamino}ethoxy}benzoate] was tested. Which Ki did it give?
A: 30 nM

Q: CC(c1nc2c(F)cc(F)c(F)c2[nH]1)c1nc2ccc(C(=O)NCCOc3ccccc3C(=O)O)cc2n1C (stereo not drawn) [Compound 80, 2-(2-{2-[1-(4,6,7-Trifluoro-1H-benzoimidazol-2-yl)ethyl]-3-methyl-3H-benzoimidazol-5-ylcarbonylamino}ethoxy)benzoic acid] was tested. Which Ki did it give?
A: 10 nM

Q: How did the Ki turn out when CC(c1nc2cc(F)c(F)cc2[nH]1)c1nc2ccc(C(=O)NCCOc3ccccc3C(=O)O)cc2n1C (stereo not drawn) [Compound 81, 2-(2-{2-[1-(5,6-difluoro-1H-benzoimidazol-2-yl)ethyl]-3-methyl-3H-benzoimidazol-5-ylcarbonylamino}ethoxy)benzoic acid] was run?
A: 10 nM

Q: With CCOC(=O)c1ccccc1OCCNC(=O)c1ccc2nc(C(C)c3nc4cc(OC(=O)OC)ccc4n3C(=O)C(C)C)n(C)c2c1 (stereo not drawn) [Compound 84, Ethyl 2-(2-{2-[1-(1-isobutyryl-5-methoxycarbonyloxy-1H-benzoimidazol-2-yl)ethyl]-3-methyl-3H-benzoimidazol-5-ylcarbonylamino}ethoxy)benzoate] as the compound, how does the Ki read?
A: 2600 nM

Q: For Cn1c(Cc2nc3cc(CN)ccc3[nH]2)nc2ccc(C(=O)NCCc3cccc4ccccc34)cc21 [Compound 102, 2-(5-aminomethyl-1H-benzoimidazol-2-ylmethyl)-3-methyl-N-(2-naphth-1-ylethyl)-3H-benzoimidazole-5-carboxamide], which Ki is on record?
A: 0.07 nM

Q: Which Ki does the source give for Cn1c(Cc2nc3c([nH]2)CCC(CN)C3)nc2ccc(C(=O)NCCc3cccc4ccccc34)cc21 (stereo not drawn) [Compound 112, 2-(5-aminomethyl-4,5,6,7-tetrahydro-1H-benzoimidazol-2-ylmethyl)-3-methyl-N-(2-naphth-1-ylethyl)-3H-benzoimidazole-5-carboxamide] here?
A: 0.05 nM

Q: How did the Ki turn out when CC(=N)N1CCc2[nH]c(Cc3nc4ccc(C(=O)NCCc5cccc6ccccc56)cc4n3C)nc2C1 [Compound 115, 2-[5-(1-iminoethyl)-4,5,6,7-tetrahydro-1H-imidazo[4,5-c]pyridin-2-ylmethyl]-3-methyl-N-(2-naphth-1-ylethyl)-3H-benzoimidazole-5-carboxamide] was run?
A: 3 nM

Q: CC(=N)N1CCc2[nH]c(C(=O)c3nc4ccc(C(=O)NCCc5cccc6ccccc56)cc4n3C)nc2C1 [Compound 116, 2-[5-(1-iminoethyl)-4,5,6,7-tetrahydro-1H-imidazo[4,5-c]pyridin-2-ylcarbonyl]-3-methyl-N-(2-naphth-1-ylethyl)-3H-benzoimidazole-5-carboxamide] was tested. Which Ki did it give?
A: 6 nM

Q: With Cn1c(Cc2nc3c([nH]2)CCN(C=N)C3)nc2ccc(C(=O)NCCc3cccc4ccccc34)cc21 [Compound 117, 2-(5-iminomethyl-4,5,6,7-tetrahydro-1H-imidazo[4,5-c]pyridin-2-ylmethyl)-3-methyl-N-(2-naphth-1-ylethyl)-3H-benzoimidazole-5-carboxamide] as the compound, how does the Ki read?
A: 8 nM

Q: Which Ki does the source give for CC(=N)N1CCc2[nH]c(Cc3nc4ccc(C(=O)NCC(O)c5cccc6ccccc56)cc4n3C)nc2C1 (stereo not drawn) [Compound 126, 2-[5-(1-iminoethyl)-4,5,6,7-tetrahydro-1H-imidazo[4,5-c]pyridin-2-ylmethyl]-3-methyl-N-(2-hydroxy-2-naphth-1-ylethyl)-3H-benzoimidazole-5-carboxamide] here?
A: 8 nM

Q: CC(=N)N1CCc2[nH]c(Cc3nc4ccc(C(=O)NCCc5c(O)ccc6ccccc56)cc4n3C)nc2C1 [Compound 127, 2-[5-(1-iminoethyl)-4,5,6,7-tetrahydro-1H-imidazo[4,5-c]pyridin-2-ylmethyl]-3-methyl-N-[2-(2-hydroxynaphth-1-yl)ethyl]-3H-benzoimidazole-5-carboxamide] was tested. Which Ki did it give?
A: 6 nM

Q: How did the Ki turn out when CC(=N)N1CCc2[nH]c(Cc3nc4ccc(C(=O)NCCc5ccc(O)c6ccccc56)cc4n3C)nc2C1 [Compound 128, 2-[5-(1-iminoethyl)-4,5,6,7-tetrahydro-1H-imidazo[4,5-c]pyridin-2-ylmethyl]-3-methyl-N-[2-(4-hydroxynaphthal-1-yl)ethyl]-3H-benzoimidazole-5-carboxamide] was run?
A: 2 nM

Q: For N=C(N)Nc1ccc2[nH]c(Cc3nc4ccc(C(=O)NCCc5cccc6ccccc56)cc4n3CC(O)CO)nc2c1 (stereo not drawn) [Compound 132, 2-(5-guanidino-1H-benzoimidazol-2-ylmethyl)-3-(2,3-dihydroxy)propyl-N-(2-naphth-1-ylethyl)-3H-benzoimidazole-5-carboxamide], which Ki is on record?
A: 0.02 nM

Q: Which Ki does the source give for N=C(N)Nc1ccc2[nH]c(C(=O)c3nc4ccc(C(=O)NCCc5cccc6ccccc56)cc4n3CC(O)CO)nc2c1 (stereo not drawn) [Compound 134, 2-(5-guanidino-1H-benzoimidazol-2-ylcarbonyl)-3-(2,3-dihydroxy)propyl-N-(2-naphth-1-ylethyl)-3H-benzoimidazole-5-carboxamide] here?
A: 0.02 nM

Q: With N=C(N)Nc1ccc2[nH]c(Cc3nc4ccc(C(=O)NCCc5cccc6ccccc56)cc4n3CCCO)nc2c1 [Compound 138, 2-(5-guanidino-1H-benzoimidazol-2-ylmethyl)-3-(3-hydroxy)propyl-N-(2-naphth-1-ylethyl)-3H-benzoimidazole-5-carboxamide] as the compound, how does the Ki read?
A: 0.2 nM

Q: For N=C(N)Nc1ccc2[nH]c(Cc3nc4ccc(C(=O)NCCc5cccc6ccccc56)cc4n3CCO)nc2c1 [Compound 152, 2-(5-guanidino-1H-benzoimidazol-2-ylmethyl)-3-(2-hydroxy)ethyl-N-(2-naphth-1-ylethyl)-3H-benzoimidazole-5-carboxamide], which Ki is on record?
A: 0.5 nM
